The target of the assay is T1, Androgen Receptor (Homo sapiens, UniProt P10275).
T1 construct: endogenous in cells; host or cells: VCaP cells
T1 sequence (P10275 1-920): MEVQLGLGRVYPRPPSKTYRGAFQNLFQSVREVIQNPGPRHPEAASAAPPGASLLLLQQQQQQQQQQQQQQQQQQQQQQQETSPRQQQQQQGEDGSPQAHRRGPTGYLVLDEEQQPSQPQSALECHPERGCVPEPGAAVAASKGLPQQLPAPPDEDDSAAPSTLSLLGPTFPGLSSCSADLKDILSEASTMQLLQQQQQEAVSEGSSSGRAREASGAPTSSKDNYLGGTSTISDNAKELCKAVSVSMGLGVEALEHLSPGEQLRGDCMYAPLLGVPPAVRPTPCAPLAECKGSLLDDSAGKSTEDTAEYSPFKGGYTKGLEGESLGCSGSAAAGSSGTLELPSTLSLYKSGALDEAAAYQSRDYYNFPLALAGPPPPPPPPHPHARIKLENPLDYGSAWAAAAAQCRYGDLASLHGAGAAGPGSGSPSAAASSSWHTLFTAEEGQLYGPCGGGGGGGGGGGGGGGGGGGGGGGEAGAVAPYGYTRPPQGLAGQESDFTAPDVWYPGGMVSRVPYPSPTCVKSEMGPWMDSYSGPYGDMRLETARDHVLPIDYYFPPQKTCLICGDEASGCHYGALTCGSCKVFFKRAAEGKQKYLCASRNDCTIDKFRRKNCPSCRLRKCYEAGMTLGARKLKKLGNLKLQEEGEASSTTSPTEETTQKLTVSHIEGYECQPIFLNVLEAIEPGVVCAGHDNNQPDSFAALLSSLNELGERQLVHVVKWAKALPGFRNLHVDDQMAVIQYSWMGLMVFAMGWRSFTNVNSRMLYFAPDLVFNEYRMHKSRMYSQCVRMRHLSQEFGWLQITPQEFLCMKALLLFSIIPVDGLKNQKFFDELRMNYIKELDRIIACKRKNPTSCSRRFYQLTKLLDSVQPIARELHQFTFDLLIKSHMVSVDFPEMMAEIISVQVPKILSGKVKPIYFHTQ
The assay can be described thus: Androgen Receptor ELISA assay (PathScan AR ELISA) in VCaP cells: AR degradation, Dmax and DC50. It is filed as cell-based. Summed up: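 After 24 h exposure of VCaP cells (charcoal-stripped serum, 0.1 nM R1881 agonist, 0.1% DMSO) to seven half-log compound concentrations, residual AR in lysates was measured by PathScan ELISA (TMB absorbance, 450 nm). Cells were plated at 30,000/well and grown at least 3 days beforehand.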
(In general: In an ELISA, binding on a coated surface is turned into a signal by an enzyme label.)

[1] abbreviates: read-out: VCaP DC50; VCaP cells; Table 36.
Where [2] appears, read: VCaP cells; Table 36; read-out: VCaP DC50.
Setting [3] is: VCaP, VCaP cells; Table 36; read-out: VCaP Dmax (%).
Where [4] appears, read: VCaP, read-out: VCaP Dmax (%), VCaP cells; Table 36.

This is an account of results in patent US11427548B2 (Arvinas Operations, Inc., priority 2015, dated 2022).

One may read the Dmax as the largest share of the target that was removed. What is called DC50 is the midpoint of the concentration-degradation curve.

Where two headings read alike, the source gives them in different places.

Consider `Cc1nccn1-c1ccc(C(C)NC(=O)C2CC(O)CN2C(=O)C(C(C)C)n2cc(-c3ccc(OC4CCN(c5ccc(N6C(=S)N(c7ccc(C#N)c(C(F)(F)F)c7)C(=O)C6(C)C)cn5)CC4)nc3)cn2)cc1` (stereo not drawn) [Example 631, 1-(2-(4-(6-((1-(5-(3-(4-cyano-3-(trifluoromethyl)phenyl)-5,5-dimethyl-4-oxo-2-thioxoimidazolidin-1-yl)pyridin-2-yl)piperidin-4-yl)oxy)pyridin-3-yl)-1H-pyrazol-1-yl)-3-methylbutanoyl)-4-hydroxy-N-(1-(4-(2-methyl-1H-imidazol-1-yl)phenyl)ethyl)pyrrolidine-2-carboxamide], for which the Dmax (VCaP, read-out: VCaP Dmax (%)) was less than 25%. Moreover, the DC50 under setting [1] is more than 501 nM.
Consider `C#CCCC(=O)OC(CCOCCCOCC(=O)N[C@H](C(=O)N1C[C@H](O)C[C@H]1C(=O)N[C@@H](C)c1ccc(-c2scnc2C)cc1)C(C)(C)C)CCOc1ccc(N2C(=S)N(c3ccc(C#N)c(C(F)(F)F)c3)C(=O)C2(C)C)cc1` (stereo partly drawn) [Example 632, 1-(4-(3-(4-cyano-3-(trifluoromethyl)phenyl)-5,5-dimethyl-4-oxo-2-thioxoimidazolidin-1-yl)phenoxy)-5-(3-(2-(((S)-1-((2S,4R)-4-hydroxy-2-(((S)-1-(4-(4-mehtylthiazol-5-yl)phenyl)ethyl)carbam-oyl)pyrrolidin-1-yl)-3,3-dimethyl-1-oxobutan-2-yl)amino)-2-oxoethoxy)propoxy)pen-tan-3-yl pent-4-ynoate], for which the “VCaP Dmax (%)” value (VCaP cells; Table 36) is on record as “++ (26% ≤ Dmax ≤ 50%)”. The DC50 under setting [2] was more than 501 nM.
For `Cc1ncoc1C12CC(CNC(=O)[C@@H]3C[C@@H](O)CN3C(=O)C(NC(=O)COCCCOCCCOc3ccc(N4C(=O)N(c5ccc(C#N)c(C(F)(F)F)c5)C(=O)C4(C)C)cc3)C(C)(C)C)(C1)C2` (stereo partly drawn) [Example 633, (2S,4)R-1-((S)-2-(2-(3-((5-(4-(3-(4-cyano-3-(trifluoromethyl)phenyl)-5,5-dimethyl-4-oxo-2-thioxoimidazolidin-1-yl)phenoxy)pentyl)oxy)propoxy)acetamido)-3,3-dimethylbutanoyl)-4-hydroxy-N-((3-(4-methyloxazol-5-yl)bicyclo[1,.1.1]pentan-1-yl)methyl)pyrrolidine-2-carboxamide], for the setting “VCaP, read-out: VCaP Dmax (%)”, the Dmax was less than 25%. Moreover, the DC50 under setting [1] is more than 501 nM.
As to `Cc1ncsc1-c1ccc([C@H](C)NC(=O)[C@@H]2C[C@@H](O)CN2C(=O)[C@@H](NC(=O)CO[C@H](C)CN2CCN(c3ccc(C(=O)N[C@H]4C(C)(C)[C@H](Oc5ccc(C#N)c(Cl)c5)C4(C)C)cc3)CC2)C(C)(C)C)cc1` [Example 634, (2S,4R)-1-((S)-2-(2-(((R)-1-(4-(4-(((1r,3R)-3-(3-chloro-4-cyanophenoxy)-2,2,4,4-tetramethylcyclobutyl)carbamoyl)phenyl)piper-azin-1-yl)propan-2-yl)oxy)acetamido)-3,3-dimethylbutanoyl)-4-hydroxy-N-((S)-1-(4-(4-methylthiazol-5-yl)phenyl)ethyl)pyrrolidine-2-carboxamide], under setting [2], the DC50 is less than 50 nM. Also, the Dmax under setting [3] was more than 71%.
For `Cc1ncsc1-c1ccc([C@H](C)NC(=O)[C@@H]2C[C@@H](O)CN2C(=O)[C@@H](NC(=O)COCCCOCCCCCOc2ccc(C(=O)N[C@H]3C(C)(C)[C@H](Oc4ccc(C#N)c(Cl)c4)C3(C)C)cc2)C(C)(C)C)cc1` [Example 635, (2S,4R)-1-((S)-2-(2-(3-((5-(4-(((1r,3r)-3-(3-chloro-4-cyanophenoxy)-2,2,4,4-tetramethylcyclobutyl)carbamoyl)phenoxy)pen-tyl)oxy)propoxy)aceta-mido)-3,3-dimethylbutanoyl)-4-hydroxy-N-((S)-1-(4-(4-methylthiazol-5-yl)phenyl)ethyl)pyrrolidine-2-carboxamide], the DC50 under setting [2] was less than 50 nM. Further, the Dmax under setting [4] is 51 to 70%.
With `Cc1ncsc1-c1ccc([C@H](C)NC(=O)[C@@H]2C[C@@H](O)CN2C(=O)[C@@H](NC(=O)COCCN2C[C@H]3C[C@@H]2CN3c2ccc(C(=O)N[C@H]3C(C)(C)[C@H](Oc4ccc(C#N)c(Cl)c4)C3(C)C)cn2)C(C)(C)C)cc1` [Example 636, N-((1r,3R)-3-(3-chloro-4-cyanophenoxy)-2,2,4,4-tetramethylcyclobutyl)-6-((1R,4R)-5-(2-(2-(((S)-1-((2S,4R)-4-hydroxy-2-(((S)-1-(4-(4-methylthiazol-5-yl)phenyl)ethyl)carbam-oyl)pyrrolidin-1-yl)-3,3-dimethyl-1-oxobutan-2-yl)amino)-2-oxoethoxy)ethyl)-2,5-diazabicyclo[2.2.1]hept-an-2-yl)nicotinamide], the Dmax (VCaP, read-out: VCaP Dmax (%)) is more than 71%. In addition, the DC50 under setting [1] is less than 50 nM.
The matching figures for `Cc1ncsc1-c1ccc([C@H](C)NC(=O)[C@@H]2C[C@@H](O)CN2C(=O)[C@@H](NC(=O)COCCN2C[C@@H]3C[C@H]2CN3c2ccc(C(=O)N[C@H]3C(C)(C)[C@H](Oc4ccc(C#N)c(Cl)c4)C3(C)C)cn2)C(C)(C)C)cc1` [Example 637, N-((1r,3S)-3-(3-chloro-4-cyanophenoxy)-2,2,4,4-tetramethylcyclobutyl)-6-((1S,4S)-5-(2-(2-(((S)-1-((2S,4R)-4-hydroxy-2-(((S)-1-(4-(4-methylthiazol-5-yl)phenyl)ethyl)carbam-oyl)pyrrolidin-1-yl)-3,3-dimethyl-1-oxobutan-2-yl)amino)-2-oxoethoxy)ethyl)-2,5-diazabicyclo[2.2.1]hept-an-2-yl)nicotinamide]: more than 71% and less than 50 nM.
Regarding `Cc1ncsc1-c1ccc(CNC(=O)[C@@H]2C[C@@H](O)CN2C(=O)[C@@H](NC(=O)COCCN2CCN(c3ccc(C(=O)N[C@H]4C(C)(C)[C@H](Oc5ccc(C#N)c(Cl)c5)C4(C)C)cn3)CC2)C(C)(C)C)cc1` [Example 638], under setting [2], the DC50 is less than 50 nM. Further, the Dmax under setting [3] was more than 71%.
For the compound `Cc1ncsc1-c1ccc([C@H](C)NC(=O)[C@@H]2C[C@@H](O)CN2C(=O)[C@@H](NC(=O)CO[C@@H](C)CN2CCN(c3ccc(C(=O)N[C@H]4C(C)(C)[C@H](Oc5ccc(C#N)c(Cl)c5)C4(C)C)cc3)CC2)C(C)(C)C)cc1` [Example 639, (1S,4R)-1-((S)-2-(2-(((S)-1-(4-(4-(((1r,3S)-3-(3-chloro-4-cyanophenoxy)-2,2,4,4-tetramethylcyclobutyl)carbamoyl)phenyl)piper-azin-1-yl)propan-2-yl)oxy)acetamido)-3,3-dimethylbutanoyl)-4-hydroxy-N-((S)-1-(4-(4-methylthiazol-5-yl)phenyl)ethyl)pyrrolidine-2-carboxamide], the DC50 under setting [2] is less than 50 nM. The Dmax under setting [3] was more than 71%.
Consider `Cc1ncsc1-c1ccc(CNC(=O)[C@@H]2C[C@@H](O)CN2C(=O)[C@@H](NC(=O)CN2CCC(OCCOc3ccc(C(=O)N[C@H]4C(C)(C)[C@H](Oc5ccc(C#N)c(C(F)(F)F)c5)C4(C)C)cc3)CC2)C(C)(C)C)cc1` [Example 640, (2S,4R)-1-((S)-2-(2-(4-(2-(4-(((1r,3r)-3-(4-cyano-3-(trifluorometh-yl)phenoxy)-2,2,4,4-tetramethylcyclobutyl)carbamoyl)phenoxy)eth-oxy)piperidin-1-yl)acetamido)-3,3-dimethylbutanoyl)-4-hydroxy-N-(4-(4-methylthiazol-5-yl)benzyl)pyrrolidine-2-carboxamide], for which the half-maximal degradation concentration (DC50) under setting [2] was less than 50 nM. The Dmax under setting [4] is more than 71%.
For the compound `Cc1ncsc1-c1ccc([C@H](C)NC(=O)[C@@H]2C[C@@H](O)CN2C(=O)[C@@H](NC(=O)COCCCCOc2ccc(C(=O)N[C@H]3C(C)(C)[C@H](Oc4ccc(C#N)c(C(F)(F)F)c4)C3(C)C)cc2)C(C)(C)C)cc1` [Example 641, (2S,4R)-1-((S)-2-(2-(4-(4-(((1r,3r)-3-(4-cyano-3-(trifluorometh-yl)phenoxy)-2,2,4,4-tetramethylcyclobutyl)carbamoyl)phenoxy)butoxy)acetamido)-3,3-dimethylbutanoyl)-4-hydroxy-N-((S)-1-(4-(4-methylthiazol-5-yl)phenyl)ethyl)pyrrolidine-2-carboxamide], the DC50 under setting [2] is less than 50 nM. In addition, the Dmax under setting [4] was more than 71%.
With `Cc1ncsc1-c1ccc([C@H](C)NC(=O)C2C[C@@H](O)CN2C(=O)[C@@H](NC(=O)COCCC2(CCNc3ccc(C(=O)N[C@H]4C(C)(C)[C@H](Oc5ccc(C#N)c(Cl)c5)C4(C)C)cc3)COC2)C(C)(C)C)cc1` (stereo partly drawn) [Example 642], the DC50 under setting [2] is less than 50 nM. In addition, the Dmax under setting [3] is more than 71%.
